Results published in ChEMBL document CHEMBL1157411, “Marine natural product libraries for high-throughput screening and rapid drug discovery” (J Nat Prod, 2008).
The source made the active and inactive calls. The calls are words filed in the database; no cut-off is given here.

Experiments:
[1] = test system: Nucleic Acid; assay: Binding affinity to supercoiled pRYG plasmid DNA assessed as DNA intercalation at 50 uM after 21 hrs by electrophoresis; assay type: nucleic-acid assay
[2] = Cytotoxicity against BRCA2-deficient Chinese hamster V-C8 mutant cells after 3 days by WST1 cell viability assay; assay type: functional, cell-based; details: Cricetulus griseus, WST1, 72 h
[3] = Cytotoxicity against BRCA2-proficient Chinese hamster BAC29 mutant cells after 3 days by WST1 cell viability assay; assay type: functional, cell-based; details: Cricetulus griseus, WST1, 72 h
[4] = Selectivity ratio for IC50 of BRCA2-deficient Chinese hamster V-C8 mutant cells to IC50 of BRCA2-proficient Chinese hamster BAC29 mutant cells; assay type: functional, Cricetulus griseus

Row | Activity [1] | SMILES | IC50 [2] | IC50 [3] | Ratio IC50 [4]
1 | Active | COc1cccc2c1C(=O)c1c(O)c3c(c(O)c1C2=O)C[C@@](O)(C(=O)CO)C[C@@H]3O[C@H]1C[C@H](N)[C@H](O)[C@H](C)O1 | – | – | –
2 | – | CO[C@@]12[C@H](COC(N)=O)C3=C(C(=O)C(C)=C(N)C3=O)N1C[C@@H]1N[C@@H]12 [MITOMYCIN] | 5 nM | 400 nM | 292
